Results from article PMC9386001, “Identification of naturally occurring inhibitors in Xian-Ling-Gu-Bao capsule against the glucuronidation of estrogens” (Frontiers in Pharmacology, 2022).
Each block holds one molecule with its values, some of them ahead of it.

Legend:
UGT1A10 [1] = target: T1, UGT1A10 (Homo sapiens, UniProt Q9HAW8); assay: Glucuronidation kinetics by expressed UGT1A10
T1 sequence (Q9HAW8 26-530): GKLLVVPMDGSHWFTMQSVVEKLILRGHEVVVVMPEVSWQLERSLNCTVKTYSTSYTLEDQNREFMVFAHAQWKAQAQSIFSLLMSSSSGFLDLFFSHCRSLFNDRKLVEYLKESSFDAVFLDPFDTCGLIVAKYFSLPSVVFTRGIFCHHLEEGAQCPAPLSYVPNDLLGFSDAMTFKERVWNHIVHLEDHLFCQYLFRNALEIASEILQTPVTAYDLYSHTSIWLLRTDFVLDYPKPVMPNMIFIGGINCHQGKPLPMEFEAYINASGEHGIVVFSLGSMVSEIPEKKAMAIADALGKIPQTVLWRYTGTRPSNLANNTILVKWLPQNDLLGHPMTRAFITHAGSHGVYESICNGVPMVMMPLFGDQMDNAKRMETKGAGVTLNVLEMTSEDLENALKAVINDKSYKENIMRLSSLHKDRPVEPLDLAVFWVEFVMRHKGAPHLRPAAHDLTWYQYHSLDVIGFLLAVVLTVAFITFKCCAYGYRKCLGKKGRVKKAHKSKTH
Method: (§1) The glucuronidation assay was conducted as described previously ([Qin et al., 2018]; [Xu et al., 2018]). In brief, incubation mixtures (100 μL) contained Tris-HCl buffer solution (50 mM, pH = 7.4), microsomes (HLM, HIM, 0.5 mg/ml) or UGT enzymes (1 mg/ml), MgCl2 (0.88 mM), alamethicin (22 μg/ml), and D-saccharic-1,4-lactone (4.4 mM) and respective substrate. The volume of organic solvent in incubation mixtures was kept below 1%. After pre-incubation at 37°C for 5 min, the reaction was commenced with the addition of UDPGA (4 mM) and subsequently incubated at 37°C for a period. The reaction was terminated by adding 100 μL of cold acetonitrile. Then, the incubation mixtures were vortexed and centrifuged at 13,800 g for 10 min to collect the supernatant for analysis.
(§2) All experiments were performed in triplicate.
(§3) Glucuronidation rates were expressed as the amounts of formed metabolites per minute per milligram protein (pmol/min/mg protein) based on Eq. 1. Furthermore, kinetic characteristics were evaluated from the suitable curves based on the profile of the Eadie–Hofstee plot, and corresponding kinetic parameters were estimated using Eqs 2–4. Appropriated model fitting was performed by GraphPad Prism V5 software (San Diego, CA).
(§4) The intrinsic clearance (CL int ) was derived from V max /K m for Michaelis–Menten and substrate inhibition models, and the maximal clearance (CL max ) was obtained using Eq. 5 for Hill kinetics. Vg=Cs∗V/Cprotein∗T∗Vprotein. (1) V=Vmax×[S]/Km+[S], (2) V=Vmax×[S]/Km+[S](1+[S]/Ksi), (3) V=Vmax×[S]^n/S50n[…], (4) CLmax=Vmax/S50×n−1/n(n−1)^1/n. (5)

UGT1A1 = target: T2, UGT1A1 (Homo sapiens, UniProt P22309); assay: Estrogen glucuronidation kinetics by expressed UGT1A1; conditions: 3-O-glucuronide formation
T2 sequence (P22309 26-533): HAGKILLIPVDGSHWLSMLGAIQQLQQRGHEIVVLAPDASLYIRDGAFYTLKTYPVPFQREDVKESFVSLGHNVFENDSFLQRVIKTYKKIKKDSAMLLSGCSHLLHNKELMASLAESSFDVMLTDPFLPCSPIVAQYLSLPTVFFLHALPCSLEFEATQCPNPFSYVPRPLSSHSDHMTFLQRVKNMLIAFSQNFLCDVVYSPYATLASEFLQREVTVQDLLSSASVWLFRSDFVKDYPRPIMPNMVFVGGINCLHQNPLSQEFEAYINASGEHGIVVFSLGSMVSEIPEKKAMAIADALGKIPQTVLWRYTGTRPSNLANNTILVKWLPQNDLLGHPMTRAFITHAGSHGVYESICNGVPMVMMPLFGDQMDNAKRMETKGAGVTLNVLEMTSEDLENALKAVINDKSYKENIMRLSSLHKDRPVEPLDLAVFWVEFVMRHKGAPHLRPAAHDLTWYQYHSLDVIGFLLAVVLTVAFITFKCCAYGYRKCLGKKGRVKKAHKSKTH
Method: as §1, with “In” for “The glucuronidation assay was conducted as described previously ([Qin et al., 2018]; [Xu et al., 2018]). In”
as §2, §3
(§5) The intrinsic clearance (CL int ) was derived from V max /K m for Michaelis–Menten and substrate inhibition models, and the maximal clearance (CL max ) was obtained using Eq. 5 for Hill kinetics. Vg=Cs∗V/Cprotein∗T∗Vprotein. […]

[2] = Estrogen glucuronidation kinetics by HIM; type: in vitro ADME, human; conditions: human, human intestine microsomes, pH 7.4, HIM, read-out: CL int or CL max
Method: as §2
(§6) Vg=Cs∗V/Cprotein∗T∗Vprotein. […] (5)

[3] = system: human intestine microsomes (HIM); assay: Estrogen glucuronidation kinetics by HIM; type: in vitro ADME; conditions: HIM
Method: as §2, §6

UGT1A3 = target: T3, UGT1A3 (Homo sapiens, UniProt P35503); assay: Estrogen glucuronidation kinetics by expressed UGT1A3; type: in vitro ADME
T3 construct: purchased Corning Biosciences
T3 sequence (P35503 29-534): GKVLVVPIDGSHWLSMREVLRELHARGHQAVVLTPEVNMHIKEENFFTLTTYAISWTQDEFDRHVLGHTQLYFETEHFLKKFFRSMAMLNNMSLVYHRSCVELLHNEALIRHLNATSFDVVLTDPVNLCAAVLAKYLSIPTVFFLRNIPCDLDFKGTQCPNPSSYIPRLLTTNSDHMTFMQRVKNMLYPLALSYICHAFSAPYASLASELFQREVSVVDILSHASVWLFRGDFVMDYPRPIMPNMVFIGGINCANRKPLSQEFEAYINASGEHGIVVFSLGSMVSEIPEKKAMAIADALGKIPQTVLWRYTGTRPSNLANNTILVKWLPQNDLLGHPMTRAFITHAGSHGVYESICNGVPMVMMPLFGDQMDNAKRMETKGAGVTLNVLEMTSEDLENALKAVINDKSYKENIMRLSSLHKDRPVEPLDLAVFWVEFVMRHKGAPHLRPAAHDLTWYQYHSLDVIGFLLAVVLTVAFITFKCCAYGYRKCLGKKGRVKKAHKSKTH
Method: as §1, with “In” for “The glucuronidation assay was conducted as described previously ([Qin et al., 2018]; [Xu et al., 2018]). In”
as §2, §3, §5

[4] = system: human liver microsomes (HLM); assay: Estrogen glucuronidation kinetics by HLM; type: in vitro ADME; conditions: HLM
Method: as §1, with “In” for “The glucuronidation assay was conducted as described previously ([Qin et al., 2018]; [Xu et al., 2018]). In”
as §2, §3, §4

UGT1A10 [5] = target: T1, UGT1A10; set-up: purchased Corning Biosciences; conditions: substrate of UGT1A10; ref Xin et al., 2016; Gao et al., 2020; cited from earlier work
UGT2B7 = target: T4, UGT2B7 (Homo sapiens, UniProt P16662); assay: Estrogen glucuronidation kinetics by expressed UGT2B7; conditions: recombinant (expressed) UGT2B7, pH 7.4
T4 sequence (P16662 24-529): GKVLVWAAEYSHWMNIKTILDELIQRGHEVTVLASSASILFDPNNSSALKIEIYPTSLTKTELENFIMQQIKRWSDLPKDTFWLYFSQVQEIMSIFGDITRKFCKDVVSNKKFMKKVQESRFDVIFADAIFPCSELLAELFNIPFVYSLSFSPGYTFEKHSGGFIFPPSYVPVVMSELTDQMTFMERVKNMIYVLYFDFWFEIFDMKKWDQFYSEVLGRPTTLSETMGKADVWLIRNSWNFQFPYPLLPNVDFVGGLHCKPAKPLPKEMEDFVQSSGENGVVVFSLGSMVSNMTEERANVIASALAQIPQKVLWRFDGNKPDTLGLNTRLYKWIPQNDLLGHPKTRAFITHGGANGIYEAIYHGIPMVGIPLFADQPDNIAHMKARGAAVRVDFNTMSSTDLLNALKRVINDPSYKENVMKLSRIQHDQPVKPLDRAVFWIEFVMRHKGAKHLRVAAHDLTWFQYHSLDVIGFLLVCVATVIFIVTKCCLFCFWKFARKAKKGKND

[6] = Estrogen glucuronidation kinetics by HLM; type: in vitro ADME, human; conditions: human, human liver microsomes, pH 7.4, HLM, read-out: CL int or CL max
Method: as §1, with “In” for “The glucuronidation assay was conducted as described previously ([Qin et al., 2018]; [Xu et al., 2018]). In”
as §2, §3, §4

[7] = substrate: C[C@]12CC[C@@H]3c4ccc(O)cc4CC[C@H]3[C@@H]1CCC2=O; assay: Estrogen glucuronidation kinetics by expressed UGT1A3; type: in vitro ADME, human; conditions: other: UGT1A3; 3-O-glucuronide formation; pH 7.4; 37.0 °C
[8] = 3-O-glucuronide formation, Hill coefficient

Molecule: Cc1cc(=O)oc2cc(O)ccc12 [4-MU, 4-methylumbelliferone]
Km (UGT1A10 [5]): ~60 µM

B1: UGT1A3 (Homo sapiens) (protein)
chain: T3 sequence (P35503 29-534)
notes: purchased Corning Biosciences
K0.5 [7]: 9.23 ± 0.39 µM

Continued, values first:

K m or S50 (UGT1A10 [1]; 3-O-glucuronide formation): 113.2 ± 46.66 µM | Ki (UGT1A10 [1]; 3-O-glucuronide formation, substrate inhibition constant): 71.98 ± 35.77 µM | K m or S50 (UGT1A10 [1]; 17-O-glucuronide formation): 16.39 ± 3.53 µM | K m or S50 (UGT1A1): 11.08 ± 0.48 µM | V max (UGT1A1): 754.9 ± 15.14 pmol/min/mg
Molecule: C[C@]12CC[C@@H]3c4ccc(O)cc4CC[C@H]3[C@@H]1CC[C@@H]2O [E2, β-estradiol]

microsomal CLint ([2]; 3-O-glucuronide formation): 25.25 ± 0.24 µL/min/mg | K m or S50 ([3]; 3-O-glucuronide formation): 8.82 ± 0.37 µM | h [3, 8]: 1.63 ± 0.09 | h (UGT1A3; [8]): 2.09 ± 0.16 | microsomal CLint (UGT1A3; human, recombinant (expressed) UGT1A3, pH 7.4, 3-O-glucuronide formation, read-out: CL int or CL max): 11.7 ± 0.95 µL/min/mg | K m or S50 ([4]; 3-O-glucuronide formation): 6.87 ± 0.59 µM
Molecule: C[C@]12CC[C@@H]3c4ccc(O)cc4CC[C@H]3[C@@H]1CCC2=O [E1, Estrone]

microsomal CLint ([2]; 3-O-glucuronide formation): 10.74 ± 0.1 µL/min/mg | microsomal CLint ([2]; 16-O-glucuronide formation): 109.4 ± 0.04 µL/min/mg | K m or S50 ([3]; 3-O-glucuronide formation): 50.18 ± 4.40 µM | K m or S50 ([3]; 16-O-glucuronide formation): 11.59 ± 0.49 µM | microsomal CLint (UGT2B7): 793.8 ± 0.07 µL/min/mg | microsomal CLint ([6]; 3-O-glucuronide formation): 1.58 ± 0.16 µL/min/mg | microsomal CLint ([6]; 16-O-glucuronide formation): 542.32 ± 0.05 µL/min/mg | K m or S50 ([4]; 3-O-glucuronide formation): 86.1 ± 12.39 µM | K m or S50 ([4]; 16-O-glucuronide formation): 11.91 ± 0.60 µM
Molecule: C[C@]12CC[C@@H]3c4ccc(O)cc4CC[C@H]3[C@@H]1C[C@@H](O)[C@@H]2O [E3, estriol]
